According to US20260306639A1, “DEGRADER FOR DECOMPOSING CMET PROTEIN, AND PHARMACEUTICAL COMPOSITION COMPRISING SAME” (INNOCURE THERAPEUTICS, INC., priority 2022, published 2026):

System: c-MET
Test: c-MET protein degradation (Simple Western), MKN-45 cells
Type: cell-based, human
Details: MKN-45 gastric cancer cells, c-MET overexpressing; 24 hours
Protocol: In order to assess the resolution of the compound of the present invention for c-MET expressed in cells, cells were dispensed in a 12-well plate at a concentration of 2×10^5 cells/well, and then gastric cancer cell lines were treated with samples for 24 hours and lung cancer cell lines were treated for 48 hours. Cell lysates were collected using a scraper on ice, centrifuged at 4° C. 15,000 rpm for 30 min to obtain a protein-containing supernatant. Protein expression was then measured using the Simple Western Automated Western Blot System Abby instrument using 3 μg of protein for each sample. SDS and heat-induced denaturation proteins were separated by molecular weight, attached to capillary, reacted with anti-c-MET or anti-GAPDH antibodies, which are primary antibodies, and then reacted with HRP-conjugated secondary antibodies, and analyzed the protein expression signal with compass software. Protein expression was normalized based on the expression value of GAPDH, and protein development in each sample was measured as a percentage (%) based on 100% of samples treated with 0.1% DMSO carriers, and DC50 (concentration of a compound where 50% protein inhibition is achieved) was calculated from the change in protein expression amount due to compound treatment.

Row | Compound | DC50
1 | N#Cc1cccc(-c2ccc(=O)n(Cc3cccc(-c4ncc(OCC5CCN(C(=O)CCOCCOCCOCCOCCNc6cccc7cnn(C8CCC(=O)NC8=O)c(=O)c67)CC5)cn4)c3)n2)c1 (stereo not shown) [ICT-0000907] | 100 to 1000 nM
2 | Cn1cc(-c2cnc3c(nnn3C[C@@H]3CN(c4ncc(-c5ccc(CN6CCN(C(=O)CCCNc7ccc8c(=O)n(C9CCC(=O)NC9=O)ncc8c7)CC6)cc5)cn4)CCO3)n2)cn1 (stereo partly drawn) [ICT-0000922, 3-{6-[(4-{4-[(4-{2-[(2S)-2-{[5-(1-methyl-1H-pyrazole-4-yl)-1H-[1,2,3]triazolo[4,5-b]pyrazine-1-yl]methyl}morpholine-4-il]pyrimidine-5-yl}phenyl)methyl]piperazine-1-yl}-4-oxobutyl)amino]-1-oxo-1,2-dihydroptalazine-2-yl}piperidine-2,6-dione] | < 100 nM
3 | Cn1cc(-c2cnc3c(nnn3C[C@@H]3CN(c4ncc(-c5ccc(CN6CCN(C(=O)CCCCCNc7ccc8c(=O)n(C9CCC(=O)NC9=O)ncc8c7)CC6)cc5)cn4)CCO3)n2)cn1 (stereo partly drawn) [ICT-0000923, 3-{6-[(6-{4-[(4-{2-[(2S)-2-{[5-(1-methyl-1H-pyrazole-4-yl)-1H-[1,2,3]triazolo[4,5-b]pyrazine-1-yl]methyl}morpholine-4-day]pyrimidine-5-yl}phenyl)methyl]piperazine-1-yl}-6-oxohexyl)amino]-1-oxo-1,2-dihydrophthalazine-2-yl}piperidine-2,6-dione] | < 100 nM
4 | Cn1cc(-c2cnc3c(nnn3C[C@@H]3CN(c4ncc(-c5ccc(CN6CCN(C(=O)CCCCNc7ccc8c(=O)n(C9CCC(=O)NC9=O)ncc8c7)CC6)cc5)cn4)CCO3)n2)cn1 (stereo partly drawn) [ICT-0000924, 3-(6-((5-(4-(4-(2-((S)-2-((5-(1-methyl-1H-pyrazole-4-yl)-1H-[1,2,3]triazolo[4,5-b]pyrazine-1-yl)methyl)morpholino)pyrimidine-5-yl)benzyl)piperazine-1-yl)5-oxopentyl)amino)1-oxopthalazine-2(1H)-yl)piperidine-2,6-dione] | < 100 nM
5 | Cn1cc(-c2cnc3c(nnn3C[C@@H]3CN(c4ncc(-c5ccc(CN6CCN(C(=O)CCCCCCNc7ccc8c(=O)n(C9CCC(=O)NC9=O)ncc8c7)CC6)cc5)cn4)CCO3)n2)cn1 (stereo partly drawn) [ICT-0000925, 3-(6-((7-(4-(4-(2-((S)-2-((5-(1-methyl-1H-pyrazole-4-yl)-1H-[1,2,3]triazolo[4,5-b]pyrazine-1-yl)methyl)morpholino)pyrimidine-5-yl)benzyl)piperazine-1-yl)7-oxoheptyl)amino)1-oxopthalazine-2(1H)-yl)piperidine-2,6-dione] | < 100 nM
6 | Cn1cc(-c2cnc3c(nnn3C[C@@H]3CN(c4ncc(-c5ccc(CN6CCN(C(=O)COCCOCCOCCNc7ccc8c(=O)n(C9CCC(=O)NC9=O)ncc8c7)CC6)cc5)cn4)CCO3)n2)cn1 (stereo partly drawn) [ICT-0000938, 3-[6-(12-{4-[(4-{2-[(2S)-2-{[5-(1-methyl-1H-pyrazole-4-yl)-1H-[1,2,3]triazolo[4,5-b]pyrazine-1-yl]methyl}morpholine-4-yl]pyrimidine-5-yl}phenyl)methyl]piperazine-1-yl}-12-oxo-4,7,10-trioxa-1-azadodecane-1-yl)-1-oxo-1,2-dihydroptalazine-2-yl]piperidine-2,6-dione] | > 1000 nM
7 | Cn1cc(-c2cnc3c(nnn3C[C@@H]3CN(c4ncc(-c5ccc(CN6CCN(C(=O)COCCOCCOCCOCCNc7ccc8c(=O)n(C9CCC(=O)NC9=O)ncc8c7)CC6)cc5)cn4)CCO3)n2)cn1 (stereo partly drawn) [ICT-0000939, 3-[6-(15-{4-[(4-{2-[(2S)-2-{[5-(1-methyl-1H-pyrazole-4-yl)-1H-[1,2,3]triazolo[4,5-b]pyrazine-1-yl]methyl}morpholine-4-yl]pyrimidine-5-yl}phenyl)methyl]piperazine-1-yl}-15-oxo-4,7,10,13-tetraoxa-1-azpentadecane-1-yl)-1-oxo-1,2-dihydroptalazine-2-yl]piperidine-2,6-dione] | > 1000 nM
8 | Cn1cc(-c2cnc3c(nnn3C[C@@H]3CN(c4ncc(-c5ccc(CN6CCN(C(=O)CCOCCOCCNc7cccc8cnn(C9CCC(=O)NC9=O)c(=O)c78)CC6)cc5)cn4)CCO3)n2)cn1 (stereo partly shown) [ICT-0000940] | 100 to 1000 nM
9 | Cn1cc(-c2cnc3c(nnn3C[C@@H]3CN(c4ncc(-c5ccc(CN6CCN(C(=O)CCCCNc7cccc8cnn(C9CCC(=O)NC9=O)c(=O)c78)CC6)cc5)cn4)CCO3)n2)cn1 (stereo partly drawn) [ICT-0000959, 3-{8-[(5-{4-[(4-{2-[(2S)-2-{[5-(1-methyl-1H-pyrazole-4-yl)-1H-[1,2,3]triazolo[4,5-b]pyrazine-1-yl]methyl}morpholine-4-il]pyrimidine-5-yl}phenyl)methyl]piperazine-1-yl}-5-oxopentyl)amino]-1-oxo-1,2-dihydropthalazine-2-yl}piperidine-2,6-dione] | < 100 nM
10 | Cn1cc(-c2cnc3c(nnn3CC3CN(c4ncc(-c5ccc(CN6CCN(C(=O)CCCNc7cccc8cnn(C9CCC(=O)NC9=O)c(=O)c78)CC6)cc5)cn4)CCO3)n2)cn1 [ICT-0000969, 3-(8-((4-(4-(4-(4-(2-((S)-2-((5-(1-methyl-1H-pyrazole-4-yl)-1H-[1,2,3]triazolo[4,5-b]pyrazine-1-yl)methyl)morpholino)pyrimidine-5-yl)benzyl)piperazine-1-yl)4-oxobutyl)amino)1-oxopthalazine-2(1H)-yl)piperidine-2,6-dione] | < 100 nM
11 | Cc1nn(C2CCC(=O)NC2=O)c(=O)c2c(NCC(=O)N3CCC(COc4cnc(-c5cccc(Cn6nc(-c7cccc(C#N)c7)ccc6=O)c5)nc4)CC3)cccc12 (stereo not shown) [ICT-0000981] | > 1000 nM
12 | N#Cc1cccc(-c2ccc(=O)n(Cc3cccc(-c4ncc(OCC5CCN(C(=O)CCCCCNc6ccc7c(=O)n(C8CCC(=O)NC8=O)ncc7c6)CC5)cn4)c3)n2)c1 (stereo not shown) [ICT-0000984, 3-(1-{[3-(5-{[1-(6-{[2-(2,6-dioxopiperidin-3-yl)-1-oxo-1,2-dihydroptalazine-6-yl]amino}hexanoyl)piperidine-4-il]methoxy}pyrimidine-2-yl)phenyl]methyl}-6-oxo-1,6-dihydropyridazine-3-yl)benzonitrile] | 100 to 1000 nM
13 | N#Cc1cccc(-c2ccc(=O)n(Cc3cccc(-c4ncc(OCC5CCN(C(=O)CCCCCCNc6ccc7c(=O)n(C8CCC(=O)NC8=O)ncc7c6)CC5)cn4)c3)n2)c1 (stereo not shown) [ICT-0000985, 3-(1-{[3-(5-{[1-(7-{[2-(2,6-dioxopiperidin-3-yl)-1-oxo-1,2-dihydrophthalazine-6-yl]amino}heptanoyl)piperidine-4-il]methoxy}pyrimidine-2-yl)phenyl]methyl}-6-oxo-1,6-dihydropyridazine-3-yl)benzonitrile] | < 100 nM
14 | N#Cc1cccc(-c2ccc(=O)n(Cc3cccc(-c4ncc(OCC5CCN(C(=O)COCCOCCNc6ccc7c(=O)n(C8CCC(=O)NC8=O)ncc7c6)CC5)cn4)c3)n2)c1 (stereo not shown) [ICT-0000986, 3-{1-[(3-{5-[(1-{2-[2-(2-{[2-(2,6-dioxopiperidin-3-yl)-1-oxo-1,2-dihydropthalazine-6-yl]amino}ethoxy)ethoxy]acetyl}piperidine-4-il)methoxy]pyrimidine-2-yl}phenyl)methyl]-6-oxo-1,6-dihydropyridazine-3-yl}benzonitrile] | < 100 nM
15 | Cc1nn(C2CCC(=O)NC2=O)c(=O)c2ccc(NCCCC(=O)N3CCC(COc4cnc(-c5cccc(Cn6nc(-c7cccc(C#N)c7)ccc6=O)c5)nc4)CC3)cc12 (stereo not shown) [ICT-0000989] | 100 to 1000 nM
16 | Cc1nn(C2CCC(=O)NC2=O)c(=O)c2ccc(NCCOCCOCC(=O)N3CCC(COc4cnc(-c5cccc(Cn6nc(-c7cccc(C#N)c7)ccc6=O)c5)nc4)CC3)cc12 (stereo not shown) [ICT-0001087] | < 100 nM
